The results in this text go back to patent publication US20210403443A1, “SUBSTITUTED 1,2,4-OXADIAZOLE, ITS APPLICATION AND A PHARMACEUTICAL PREPARATION COMPRISING IT” (SVENOX PHARMACEUTICALS LLC, priority 2018, published 2021).

Holding throughout (assay): microbe, parasite or virus in culture
Holding throughout (type): cell-based
Holding throughout (settings): for MIC: Mycobacterium tuberculosis, 336 h, read-out: Minimum inhibiting concentration of substances with general formula I

The test system of assay [1] is M. tuberculosis MDR strain Praha 131.
For assay [2], the system named is M. tuberculosis MDR strain Praha 1.
Assay [3] concerns M. tuberculosis MDR strain Praha 4.
The test system of assay [4] is M. tuberculosis MDR strain 234/2005.
For assay [5], the system named is M. tuberculosis MDR strain 9449/2007.
Assay [6] has as its system M. tuberculosis MDR strain 7357/1998.
For assay [7], the system named is M. tuberculosis MDR strain 8666/2010.

Values after ≈ are worked out from the molar mass of the structure shown.

As for `NCC[C@H](O)C(=O)N[C@@H]1C[C@H](N)[C@@H](O[C@H]2O[C@H](CN)[C@@H](O)[C@H](O)[C@H]2O)[C@H](O)[C@H]1O[C@H]1O[C@H](CO)[C@@H](O)[C@H](N)[C@H]1O` [Amikacin], the “Minimum inhibiting concentration of commonly used antibiotics and antituberculosis medicaments” value (from here on “Minimum inhibiting concentration”) in assay [1] is listed as over 27.2 R μmol · l^−1; in assay [2], 0.43 C μmol · l^−1; in assay [3], 0.85 C μmol · l^−1; in assay [4], 0.43 C μmol · l^−1; in assay [5] it was 0.43 C μmol · l^−1; in assay [6], 0.85 C μmol · l^−1. Also, in assay [7], the “Minimum inhibiting concentration” value came out at 1.7 C μmol · l^−1. In addition, the “strain resistant or sensitive to the drug” value in assay [1] was over 27.2 R; in assay [2], 0.43 C; in assay [3], 0.85 C; in assay [4] it was 0.43 C; in assay [5] it was 0.43 C; in assay [6] it was 0.85 C. For the same molecule, the “strain resistant or sensitive to the drug” value in assay [7] amounted to 1.7 C.
For `CC(C)/N=c1\cc2n(-c3ccc(Cl)cc3)c3ccccc3nc-2cc1Nc1ccc(Cl)cc1` [Clofazimin], the “Minimum inhibiting concentration” value in assay [1] amounted to 0.26 C μmol · l^−1; in assay [2], 0.53 R μmol · l^−1; in assay [3], 0.53 R μmol · l^−1; in assay [4], 0.06 C μmol · l^−1; in assay [5] it was 0.13 C μmol · l^−1; in assay [6], 0.13 C μmol · l^−1. The “Minimum inhibiting concentration” value in assay [7] is recorded as 2.11 R μmol · l^−1. In addition, the “strain resistant or sensitive to the drug” value is reported as 0.26 C in assay [1]; 0.53 R in assay [2]; 0.53 R in assay [3]; 0.06 C in assay [4]; 0.13 C in assay [5]; 0.13 C in assay [6]. In addition, in assay [7], the “strain resistant or sensitive to the drug” value turned out to be 2.11 R.
With `COc1ccc(-c2noc(SCc3cc([N+](=O)[O-])cc([N+](=O)[O-])c3)n2)cc1` [Compound 3], the MIC in assay [1] stood at 0.5 µM (≈ 0.194 µg/mL); in assay [2] it was 1 µM (≈ 0.388 µg/mL); in assay [3] it was 0.5 µM (≈ 0.194 µg/mL); in assay [4] it was 0.5 µM (≈ 0.194 µg/mL); in assay [5], 0.5 µM (≈ 0.194 µg/mL); in assay [6], 0.5 µM (≈ 0.194 µg/mL). The MIC in assay [7] came out at 0.5 µM (≈ 0.194 µg/mL).
As for `O=[N+]([O-])c1cc(CSc2nc(-c3ccc(Cl)cc3)no2)cc([N+](=O)[O-])c1` [Compound 4], the MIC in assay [1] was 1 µM (≈ 0.393 µg/mL); in assay [2], 2 µM (≈ 0.786 µg/mL); in assay [3], 0.5 µM (≈ 0.196 µg/mL); in assay [4], 0.5 µM (≈ 0.196 µg/mL); in assay [5] it was 1 µM (≈ 0.393 µg/mL); in assay [6], 1 µM (≈ 0.393 µg/mL). The MIC in assay [7] turned out to be 0.5 µM (≈ 0.196 µg/mL).
For the molecule `O=[N+]([O-])c1cc(CSc2nc(-c3cccc(Cl)c3)no2)cc([N+](=O)[O-])c1` [Compound 5], the MIC in assay [1] was 1 µM (≈ 0.393 µg/mL); in assay [2], 1 µM (≈ 0.393 µg/mL); in assay [3] it was 0.5 µM (≈ 0.196 µg/mL); in assay [4], 0.5 µM (≈ 0.196 µg/mL); in assay [5], 1 µM (≈ 0.393 µg/mL); in assay [6], 1 µM (≈ 0.393 µg/mL). Also, in assay [7], the MIC stood at 0.5 µM (≈ 0.196 µg/mL).
On to `O=[N+]([O-])c1cc(CSc2nc(-c3ccc(F)cc3)no2)cc([N+](=O)[O-])c1` [Compound 8], for which the MIC in assay [1], in assay [2], in assay [3], in assay [4], in assay [5] and in assay [6] was 0.5 µM (≈ 0.188 µg/mL) in each case. In addition, the MIC in assay [7] stood at 0.5 µM (≈ 0.188 µg/mL).
Consider `O=[N+]([O-])c1cc(CSc2nc(-c3ccc(Br)cc3)no2)cc([N+](=O)[O-])c1` [Compound 9], for which the MIC in assay [1] came out at 1 µM (≈ 0.437 µg/mL); in assay [2], 0.5 µM (≈ 0.219 µg/mL); in assay [3] it was 0.5 µM (≈ 0.219 µg/mL); in assay [4], 0.5 µM (≈ 0.219 µg/mL); in assay [5], 0.5 µM (≈ 0.219 µg/mL); in assay [6], 1 µM (≈ 0.437 µg/mL). In addition, in assay [7], the MIC worked out at 0.5 µM (≈ 0.219 µg/mL).
As to `CC[C@@H](CO)NCCN[C@@H](CC)CO` [Etambutol], the “Minimum inhibiting concentration” value in assay [1] is given as 39.2 R μmol · l^−1; in assay [2], 39.2 R μmol · l^−1; in assay [3], 19.6 R μmol · l^−1; in assay [4], 19.6 R μmol · l^−1; in assay [5] it was 9.8 C μmol · l^−1; in assay [6], 19.6 R μmol · l^−1. For the same molecule, in assay [7], the “Minimum inhibiting concentration” value was found to be 19.6 R μmol · l^−1. Further, the “strain resistant or sensitive to the drug” value in assay [1] is on record as 39.2 R; in assay [2], 39.2 R; in assay [3], 19.6 R; in assay [4] it was 19.6 R; in assay [5], 9.8 C; in assay [6], 19.6 R. Moreover, in assay [7], the “strain resistant or sensitive to the drug” value amounted to 19.6 R.
Turning to `NNC(=O)c1ccncc1` [Isoniazid], the “Minimum inhibiting concentration” value in assay [1] stood at 14.6 R μmol · l^−1; in assay [2], 14.6 R μmol · l^−1; in assay [3] it was 14.6 R μmol · l^−1; in assay [4], 14.6 R μmol · l^−1; in assay [5] it was 58.3 R μmol · l^−1; in assay [6] it was 14.6 R μmol · l^−1. Moreover, the “Minimum inhibiting concentration” value in assay [7] is given as 29.2 R μmol · l^−1. Also, the “strain resistant or sensitive to the drug” value in assay [1] is on record as 14.6 R; in assay [2] it was 14.6 R; in assay [3] it was 14.6 R; in assay [4], 14.6 R; in assay [5], 58.3 R; in assay [6], 14.6 R. In assay [7], the “strain resistant or sensitive to the drug” value was 29.2 R.
As to `CC1COc2c(N3CCN(C)CC3)c(F)cc3c(=O)c(C(=O)O)cn1c23` (centres unmarked) [Ofloxacin], the “Minimum inhibiting concentration” value in assay [1] is recorded as 22.2 R μmol · l^−1; in assay [2] it was 1.38 C μmol · l^−1; in assay [3], over 22.2 R μmol · l^−1; in assay [4] it was 0.69 C μmol · l^−1; in assay [5] it was 2.75 C μmol · l^−1; in assay [6] it was 11.1 R μmol · l^−1. Also, the “Minimum inhibiting concentration” value in assay [7] came to 11.1 R μmol · l^−1. Besides, the “strain resistant or sensitive to the drug” value was 22.2 R in assay [1]; 1.38 C in assay [2]; over 22.2 R in assay [3]; 0.69 C in assay [4]; 2.75 C in assay [5]; 11.1 R in assay [6]. For the same molecule, the “strain resistant or sensitive to the drug” value in assay [7] is 11.1 R.
Regarding `CO[C@H]1/C=C/O[C@@]2(C)Oc3c(C)c(O)c4c(O)c(c(/C=N/N5CCN(C)CC5)c(O)c4c3C2=O)NC(=O)/C(C)=C\C=C\[C@H](C)[C@H](O)[C@@H](C)[C@@H](O)[C@@H](C)[C@H](OC(C)=O)[C@@H]1C` [Rifampicin], the “Minimum inhibiting concentration” value in assay [1], in assay [2], in assay [3], in assay [4], in assay [5] and in assay [6] was over 9.7 R μmol · l^−1 each time. Besides, the “Minimum inhibiting concentration” value in assay [7] is over 9.7 R μmol · l^−1. The “strain resistant or sensitive to the drug” value in assay [1], in assay [2], in assay [3], in assay [4], in assay [5] and in assay [6] was over 9.7 R in each case. Moreover, in assay [7], the “strain resistant or sensitive to the drug” value is reported as over 9.7 R.
